In US9969741B2, “Pyrazolotriazines as inhibitors of nucleases” (MASARYKOVA UNIVERZITA, priority 2014, dated 2018) one finds IC50 data, which are given here for three molecules.

Bounds are passed on as bounds.

For the experiment, the target named is T1, MUS81/EME1 (Homo sapiens, UniProt Q96NY9).
T1 sequence (Q96NY9 1-551): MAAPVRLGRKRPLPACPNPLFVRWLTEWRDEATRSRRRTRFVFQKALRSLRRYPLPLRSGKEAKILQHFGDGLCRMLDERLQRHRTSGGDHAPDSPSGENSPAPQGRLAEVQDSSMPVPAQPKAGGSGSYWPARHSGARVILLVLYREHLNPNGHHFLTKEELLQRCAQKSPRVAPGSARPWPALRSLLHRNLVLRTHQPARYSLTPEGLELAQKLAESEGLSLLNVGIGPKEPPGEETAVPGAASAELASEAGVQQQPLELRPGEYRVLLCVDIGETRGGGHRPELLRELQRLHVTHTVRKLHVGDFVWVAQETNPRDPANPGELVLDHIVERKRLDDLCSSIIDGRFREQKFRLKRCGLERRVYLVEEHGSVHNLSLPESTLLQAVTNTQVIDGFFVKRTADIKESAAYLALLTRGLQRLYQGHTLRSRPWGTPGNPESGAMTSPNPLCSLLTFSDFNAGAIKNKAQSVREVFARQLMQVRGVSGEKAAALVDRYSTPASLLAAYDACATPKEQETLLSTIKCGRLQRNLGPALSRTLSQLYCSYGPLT
T1 sequence (Q96AY2 1-570 partner): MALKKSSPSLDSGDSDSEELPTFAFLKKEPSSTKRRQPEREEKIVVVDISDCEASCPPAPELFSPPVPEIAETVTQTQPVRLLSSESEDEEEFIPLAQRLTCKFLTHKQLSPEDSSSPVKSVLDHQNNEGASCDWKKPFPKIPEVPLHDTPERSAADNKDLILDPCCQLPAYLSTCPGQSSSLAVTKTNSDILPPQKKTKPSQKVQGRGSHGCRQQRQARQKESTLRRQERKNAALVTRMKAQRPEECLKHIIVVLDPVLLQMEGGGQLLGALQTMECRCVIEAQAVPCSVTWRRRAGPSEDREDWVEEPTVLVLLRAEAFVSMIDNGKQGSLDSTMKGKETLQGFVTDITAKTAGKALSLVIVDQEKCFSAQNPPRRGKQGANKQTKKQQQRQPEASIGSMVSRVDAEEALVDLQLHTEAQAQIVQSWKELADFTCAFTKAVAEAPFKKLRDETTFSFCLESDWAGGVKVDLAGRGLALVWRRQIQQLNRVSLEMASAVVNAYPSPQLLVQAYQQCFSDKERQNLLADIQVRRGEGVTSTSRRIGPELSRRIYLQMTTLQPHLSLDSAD
The experiment in a line: Nuclease inhibition assay, MUS81/EME1 (3′ flap fluorescent DNA substrate, gel readout). Type of experiment: biochemical. As to conditions: 5 nM enzyme, 5 nM 3′ flap substrate, 15 min at 30° C. The source says:
In vitro assays were used for the determination of compound's IC50 values for inhibition of individual nucleases, i.e., MUS81/EME1, FEN1, EXO1, and MRE11. To generate IC50 values, concentration of compound was plotted against relative nuclease activity (in %). The dose-response curves were generated from inhibition data, from 5 point serial dilutions of inhibitory compounds, each in triplicate and fitted to a standard sigmoid curve. IC50 values were derived by standard nonlinear regression analysis.
All tested compounds were diluted in 100% DMSO (dimethylsulfoxide) to prepare working stocks with different concentrations. To keep the DMSO concentration constant in every reaction, always 0.5 μl of the compound stock was added to the reaction buffer. The reaction buffer differs depending on the enzyme tested. Also concentration of the compounds in the reaction depends on the particular enzyme, since the inhibitory effect of the compounds vary between the enzymes. Nevertheless, always doubling dilutions in the range 200-0.8 μM was used. The compound was added as the first component in the reaction buffer, followed by the enzyme addition. Short (15 minutes) pre-incubation step followed before the reaction was initiated by addition of DNA substrate (5 nM).
As a negative control, DNA substrate specific for each particular enzyme without the addition of the enzyme and the compound was used. The positive control contained all components of the reaction, except the compound of interest. However, to compensate for solvent effects, DMSO (at a final concentration of 2.5%) was included in the reaction.
For this experiment we prepared short fluorescently labeled oligonucleotide-based DNA substrates with specific structures reflecting the biochemical activities of tested individual nucleases (Table 1). These substrates were prepared by annealing of synthetic oligonucleotides purchased from VBC Biotech. Composition of each substrate is indicated below the table; the corresponding oligonucleotides were combined in equimolar ratios. For visualization, each substrate was labeled by fluorescent dye (fluorescein), which can be detected in the gel using appropriate imaging system (FLA-9000, Fuji) with filters for particular wavelengths (excitation: 485 nm, emission: 535 nm).
Nuclease assays were performed in reaction buffer specific for particular enzyme: MUS81/EME1 (50 mM Tris pH=7.5, 5 mM MgCl2, 1 mM DTT a 100 μg/ml BSA), MRE11 (30 mM Bis-Tris pH=7.0, 50 μg/ml BSA, 1 mM DTT a 250 μM MnCl2), EXO1 and FEN1 (50 mM Tris pH=7.5, 1 mM MgCl2, 1 mM DTT a 100 μg/ml BSA). The individual reactions were prepared by mixing with highly purified enzyme (MUS81/EME1 (5 nM), MRE11 (5 nM), EXO1 (5 nM) or FEN1 (10 nM); purification protocols described below), and different concentration of inhibitor (mentioned above) in corresponding reaction buffer. The final volume of the reaction was 20 μl. After short pre-incubation (15 minutes at room temperature), the reaction was initiated by addition of 5 nM of corresponding fluorescently labeled DNA substrate (3′ flap for MUS81/EME1, 5′ flap for MRE11 and FEN1, 3′ OH for EXO1; see FIG. 1) and incubated for 15 minutes at 30° C. Next, the reaction was stopped and deproteinized by addition of 2 μl of stop buffer, containing 0.1% SDS and 500 μg/ml proteinase K, and incubated for additional 5 minutes at 30° C. Then the loading dye, containing glycerol (60% glycerol, 10 mM Tris pH=7.4, 60 mM EDTA a 0.1% Orange G), was added to each reaction ( 1/10 of the reaction volume), and the whole mixture was subjected to electrophoresis in 10% polyacrylamide native gel (110 V, 40 min, 1× TBE). Fluorescently labeled DNA was detected by FLA-9000 scanner (Fuji) and the result was evaluated using Multi-Gauge V3.2 software (Fuji).
The Mus81/Eme1 expression construct was a kind gift from Dr. Steve West (Cancer Research UK). Briefly, the nuclease complex was purified as follows. […]
The molecule `CCc1nn2c(N)c(-c3nc4ccccc4[nH]3)nnc2c1-c1ccc(F)cc1` [Preparative Example 5A] yielded an IC50 below 10 µM.

As to `Nc1c(-c2nc3ccccc3[nH]2)nnc2cc(-c3ccccc3)nn12` [Preparative Example 5C], the IC50 was below 50 µM.

The molecule `Nc1c(-c2nc3ccccc3[nH]2)nnc2cc(-c3cccc4ccccc34)nn12` [Preparative Example 5K] showed an IC50 below 10 µM.

One may read the IC50 as the concentration that inhibits the measured activity by half.
